Results on 1 compound are retold here after ChEMBL document CHEMBL5120855, “Potent 2,3-dihydrophthalazine-1,4-dione derivatives as dual inhibitors for mono-ADP-ribosyltransferases PARP10 and PARP15” (Eur J Med Chem, 2022).

One assay relates to HeLa. The assay can be described thus: Rescue of cell viability in human HeLa cells expressing wild type PARP10 at upto 10 uM incubated for 10 to 12 days by methylene blue dye based colony formation assay. Type of assay: functional.
The target in assay [1] is T1, Poly [ADP-ribose] polymerase tankyrase-2 (Homo sapiens, UniProt Q9H2K2).
T1 sequence (Q9H2K2 whole entry): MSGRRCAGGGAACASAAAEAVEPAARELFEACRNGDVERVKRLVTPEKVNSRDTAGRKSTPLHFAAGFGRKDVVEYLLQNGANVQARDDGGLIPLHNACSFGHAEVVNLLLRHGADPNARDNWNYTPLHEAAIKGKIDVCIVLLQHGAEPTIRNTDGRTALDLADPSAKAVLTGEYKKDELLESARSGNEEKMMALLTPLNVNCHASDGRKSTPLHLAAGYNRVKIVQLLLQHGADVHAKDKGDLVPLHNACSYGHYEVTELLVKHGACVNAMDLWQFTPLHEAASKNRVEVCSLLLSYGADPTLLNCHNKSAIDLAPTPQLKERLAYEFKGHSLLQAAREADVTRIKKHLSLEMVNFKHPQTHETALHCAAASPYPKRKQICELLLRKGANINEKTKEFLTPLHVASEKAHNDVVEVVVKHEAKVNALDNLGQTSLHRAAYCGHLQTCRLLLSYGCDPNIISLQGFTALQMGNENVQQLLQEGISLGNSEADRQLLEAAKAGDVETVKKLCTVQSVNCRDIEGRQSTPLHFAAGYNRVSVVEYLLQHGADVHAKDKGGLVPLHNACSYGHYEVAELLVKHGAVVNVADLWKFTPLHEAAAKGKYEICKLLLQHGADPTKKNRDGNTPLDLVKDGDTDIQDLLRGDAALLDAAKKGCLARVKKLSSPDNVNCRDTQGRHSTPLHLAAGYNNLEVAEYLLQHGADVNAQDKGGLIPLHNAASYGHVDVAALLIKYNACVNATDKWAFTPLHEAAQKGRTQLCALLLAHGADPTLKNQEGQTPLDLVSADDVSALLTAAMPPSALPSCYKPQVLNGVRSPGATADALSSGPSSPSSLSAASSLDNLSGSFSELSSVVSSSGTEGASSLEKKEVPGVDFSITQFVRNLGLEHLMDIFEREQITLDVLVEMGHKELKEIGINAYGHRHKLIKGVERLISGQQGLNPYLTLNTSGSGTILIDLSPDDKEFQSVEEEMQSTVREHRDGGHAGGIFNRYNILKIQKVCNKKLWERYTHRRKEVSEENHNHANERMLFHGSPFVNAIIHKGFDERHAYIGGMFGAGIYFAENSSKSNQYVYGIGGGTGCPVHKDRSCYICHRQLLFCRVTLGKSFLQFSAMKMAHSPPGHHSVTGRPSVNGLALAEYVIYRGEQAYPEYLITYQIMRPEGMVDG
Kind of assay: Inhibition of human N-terminal 6His-tagged TNKS2 (1030 to 1317 residues) expressed in Escherichia coli Rosetta2 (DE3) cells using NAD+ as substrate incubated for 10 mins by fluorescence based analysis.

The target in assay [2] is T2, Protein mono-ADP-ribosyltransferase PARP15 (Homo sapiens, UniProt Q460N3).
T2 sequence (Q460N3 whole entry): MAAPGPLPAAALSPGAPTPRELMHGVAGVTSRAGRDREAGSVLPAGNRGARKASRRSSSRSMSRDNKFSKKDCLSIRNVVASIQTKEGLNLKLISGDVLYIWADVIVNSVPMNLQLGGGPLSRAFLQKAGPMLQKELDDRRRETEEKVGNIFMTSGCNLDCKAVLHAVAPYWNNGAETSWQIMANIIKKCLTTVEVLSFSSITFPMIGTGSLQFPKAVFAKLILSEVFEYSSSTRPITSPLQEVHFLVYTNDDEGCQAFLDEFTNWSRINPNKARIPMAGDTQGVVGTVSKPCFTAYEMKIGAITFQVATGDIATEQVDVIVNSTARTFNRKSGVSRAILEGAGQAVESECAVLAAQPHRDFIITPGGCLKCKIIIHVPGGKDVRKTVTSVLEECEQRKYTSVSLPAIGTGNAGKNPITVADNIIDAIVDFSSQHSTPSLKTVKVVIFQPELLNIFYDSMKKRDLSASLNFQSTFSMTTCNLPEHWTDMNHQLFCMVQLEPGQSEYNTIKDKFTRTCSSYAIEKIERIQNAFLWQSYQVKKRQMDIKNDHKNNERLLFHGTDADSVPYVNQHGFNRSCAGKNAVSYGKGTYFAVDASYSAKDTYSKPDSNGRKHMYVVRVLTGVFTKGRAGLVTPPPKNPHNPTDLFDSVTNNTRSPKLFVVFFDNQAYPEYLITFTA
Kind of assay: Inhibition of human N-terminal 6His-tagged PARP15 (460 to 656 residues) expressed in Escherichia coli Rosetta2 (DE3) cells using NAD+ as substrate incubated for 10 mins by fluorescence based analysis.

The target in assay [3] is Poly [ADP-ribose] polymerase 2 (Homo sapiens, UniProt Q9UGN5). Kind of assay: Inhibition of human PARP2 using NAD+ as substrate incubated for 10 mins by fluorescence based analysis.
Poly [ADP-ribose] polymerase 2, sequence (Q9UGN5 whole entry): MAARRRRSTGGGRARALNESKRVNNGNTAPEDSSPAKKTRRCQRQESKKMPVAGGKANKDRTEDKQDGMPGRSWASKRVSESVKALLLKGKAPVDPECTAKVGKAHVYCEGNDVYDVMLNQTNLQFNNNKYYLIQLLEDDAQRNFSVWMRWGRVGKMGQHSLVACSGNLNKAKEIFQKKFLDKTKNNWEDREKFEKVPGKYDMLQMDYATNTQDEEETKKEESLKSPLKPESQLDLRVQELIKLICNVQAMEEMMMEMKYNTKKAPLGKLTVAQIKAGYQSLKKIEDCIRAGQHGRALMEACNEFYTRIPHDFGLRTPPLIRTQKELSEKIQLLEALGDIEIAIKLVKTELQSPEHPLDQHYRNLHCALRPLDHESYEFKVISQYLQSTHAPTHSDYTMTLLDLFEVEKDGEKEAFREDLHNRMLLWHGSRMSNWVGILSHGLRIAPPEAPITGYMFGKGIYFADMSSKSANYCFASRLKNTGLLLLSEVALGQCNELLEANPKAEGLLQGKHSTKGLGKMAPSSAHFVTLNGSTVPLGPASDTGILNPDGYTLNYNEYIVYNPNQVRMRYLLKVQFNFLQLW

As for `NC(=O)c1ccc(OCC2CCC2)cc1`, in the assay on HeLa, the EC50 (usually the concentration at which the effect is half-maximal) is 590 nM. For the same compound, the figures for the IC50 in assay [1], in assay [2] and in assay [3] were above 100000 nM, 2400 nM and 38000 nM, respectively.
